Assay results taken from ChEMBL document CHEMBL5653631, “A Potent and Selective ULK1 Inhibitor Suppresses Autophagy and Sensitizes Cancer Cells to Nutrient Stress” (iScience, 2018).
Blank lines part the entries; values can stand above or below the compound they belong to.

Tests used:
[1] = target: Glycogen synthase kinase-3 beta (Homo sapiens) (UniProt P49841); test: Inhibition of human recombinant GSK3B at 500 nM in presence of ATP by radiometric assay relative to control
[2] = target: T1, Serine/threonine-protein kinase D3 (Homo sapiens) (UniProt O94806); test: Inhibition of human recombinant PKD3 at 500 nM related to control ULK1
T1 sequence (whole entry): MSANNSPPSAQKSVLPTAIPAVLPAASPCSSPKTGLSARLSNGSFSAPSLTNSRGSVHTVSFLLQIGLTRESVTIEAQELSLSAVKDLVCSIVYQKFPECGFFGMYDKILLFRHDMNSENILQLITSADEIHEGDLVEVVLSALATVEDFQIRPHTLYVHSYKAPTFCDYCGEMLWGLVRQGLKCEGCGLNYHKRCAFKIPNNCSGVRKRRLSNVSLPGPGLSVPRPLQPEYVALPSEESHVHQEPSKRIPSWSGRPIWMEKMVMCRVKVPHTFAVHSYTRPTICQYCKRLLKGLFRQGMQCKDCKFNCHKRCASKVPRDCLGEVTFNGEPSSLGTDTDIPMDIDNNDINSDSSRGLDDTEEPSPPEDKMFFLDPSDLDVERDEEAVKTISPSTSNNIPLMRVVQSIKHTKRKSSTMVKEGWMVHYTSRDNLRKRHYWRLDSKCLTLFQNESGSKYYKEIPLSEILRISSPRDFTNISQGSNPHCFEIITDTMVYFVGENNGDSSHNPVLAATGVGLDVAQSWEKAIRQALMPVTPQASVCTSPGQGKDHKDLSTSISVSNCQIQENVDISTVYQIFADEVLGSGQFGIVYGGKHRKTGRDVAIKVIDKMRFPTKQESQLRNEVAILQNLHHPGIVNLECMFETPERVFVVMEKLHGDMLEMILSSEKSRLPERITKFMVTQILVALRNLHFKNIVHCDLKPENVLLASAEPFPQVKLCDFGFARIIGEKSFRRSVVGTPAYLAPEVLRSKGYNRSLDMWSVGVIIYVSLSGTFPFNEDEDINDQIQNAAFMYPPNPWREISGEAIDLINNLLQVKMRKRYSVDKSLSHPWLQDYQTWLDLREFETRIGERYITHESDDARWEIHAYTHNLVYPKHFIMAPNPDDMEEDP

[3] = target: T2, Ephrin type-A receptor 3 (Homo sapiens) (UniProt P29320); test: Inhibition of human recombinant EphA3 at 15 nM related to control ULK1
T2 sequence (whole entry): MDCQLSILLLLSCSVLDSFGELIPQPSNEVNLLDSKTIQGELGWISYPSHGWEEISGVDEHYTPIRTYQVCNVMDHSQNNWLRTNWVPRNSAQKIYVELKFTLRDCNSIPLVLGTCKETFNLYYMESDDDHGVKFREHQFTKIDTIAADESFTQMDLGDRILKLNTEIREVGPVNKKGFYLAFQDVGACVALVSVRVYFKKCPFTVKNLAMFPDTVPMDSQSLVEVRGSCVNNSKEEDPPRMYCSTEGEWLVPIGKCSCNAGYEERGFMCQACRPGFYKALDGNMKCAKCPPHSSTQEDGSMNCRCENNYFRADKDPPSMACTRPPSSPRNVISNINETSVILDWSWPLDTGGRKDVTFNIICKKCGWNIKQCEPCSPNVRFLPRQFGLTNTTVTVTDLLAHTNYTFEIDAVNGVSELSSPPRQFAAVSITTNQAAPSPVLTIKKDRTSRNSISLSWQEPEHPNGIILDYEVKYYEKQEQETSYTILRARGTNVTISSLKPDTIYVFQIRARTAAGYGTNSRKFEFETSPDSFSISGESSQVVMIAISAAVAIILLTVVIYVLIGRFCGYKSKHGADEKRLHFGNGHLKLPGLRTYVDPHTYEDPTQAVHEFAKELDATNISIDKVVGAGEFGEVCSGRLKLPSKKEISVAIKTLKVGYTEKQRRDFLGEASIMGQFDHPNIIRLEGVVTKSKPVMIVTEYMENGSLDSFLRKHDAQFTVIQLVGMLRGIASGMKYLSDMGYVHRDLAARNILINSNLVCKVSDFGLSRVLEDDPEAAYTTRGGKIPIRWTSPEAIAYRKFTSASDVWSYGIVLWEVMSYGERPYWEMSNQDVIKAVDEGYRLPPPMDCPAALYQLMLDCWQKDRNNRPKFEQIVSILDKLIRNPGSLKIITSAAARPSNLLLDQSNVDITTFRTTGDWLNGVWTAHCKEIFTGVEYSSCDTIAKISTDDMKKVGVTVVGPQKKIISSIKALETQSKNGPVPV

[4] = target: T3, Dual specificity tyrosine-phosphorylation-regulated kinase 2 (Homo sapiens) (UniProt Q92630); test: Inhibition of human recombinant DYRK2 at 40 nM in presence of ATP by radiometric assay relative to control
T3 sequence (whole entry): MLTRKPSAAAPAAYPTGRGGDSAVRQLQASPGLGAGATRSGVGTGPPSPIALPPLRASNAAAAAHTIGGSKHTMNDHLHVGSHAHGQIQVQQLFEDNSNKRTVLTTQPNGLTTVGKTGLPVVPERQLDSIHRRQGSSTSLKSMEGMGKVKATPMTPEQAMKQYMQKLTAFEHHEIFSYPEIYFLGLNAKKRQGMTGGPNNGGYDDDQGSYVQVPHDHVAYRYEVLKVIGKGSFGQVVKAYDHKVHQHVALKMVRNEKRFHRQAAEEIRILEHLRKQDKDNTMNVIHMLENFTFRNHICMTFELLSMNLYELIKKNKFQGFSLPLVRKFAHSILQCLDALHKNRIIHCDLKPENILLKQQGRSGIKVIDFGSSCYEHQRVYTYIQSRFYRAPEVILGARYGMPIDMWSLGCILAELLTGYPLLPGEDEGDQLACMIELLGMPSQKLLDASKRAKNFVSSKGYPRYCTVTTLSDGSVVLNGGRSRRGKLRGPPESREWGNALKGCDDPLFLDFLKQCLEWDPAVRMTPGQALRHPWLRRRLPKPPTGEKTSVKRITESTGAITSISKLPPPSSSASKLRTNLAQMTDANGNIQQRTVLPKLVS

[5] = species: Homo sapiens; test: Inhibition of human recombinant p70S6K at 40 nM related to control ULK1

Chain of Glycogen synthase kinase-3 beta (Homo sapiens) (P49841 whole entry, looked up): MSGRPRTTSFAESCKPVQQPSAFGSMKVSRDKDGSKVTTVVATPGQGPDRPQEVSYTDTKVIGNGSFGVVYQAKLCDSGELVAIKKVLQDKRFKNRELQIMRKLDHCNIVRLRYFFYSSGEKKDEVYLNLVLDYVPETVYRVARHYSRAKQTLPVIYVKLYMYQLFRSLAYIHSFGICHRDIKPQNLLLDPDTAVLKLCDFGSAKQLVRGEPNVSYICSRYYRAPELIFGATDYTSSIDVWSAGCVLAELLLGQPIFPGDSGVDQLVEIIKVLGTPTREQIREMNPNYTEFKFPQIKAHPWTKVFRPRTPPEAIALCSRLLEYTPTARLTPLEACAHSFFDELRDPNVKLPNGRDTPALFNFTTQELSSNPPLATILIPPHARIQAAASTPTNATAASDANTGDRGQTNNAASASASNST

- inhibition [1]: 0%
- fold change (FC) [2]: 0
SMILES: CNC(=O)c1ccccc1Oc1nc(Nc2cc(OC)c(OC)c(OC)c2)ncc1Br

- fold change (FC) [3]: 0.03
SMILES: CC(C)[C@H](NC(=O)c1cc(-c2cnn3cc(-c4ccc(OCCN5CCCCC5)cc4)cnc23)cs1)C(F)(F)F

- inhibition [4]: 11%
- fold change (FC) [5]: 0.03
SMILES: O=C(N[C@@H](C1CC1)C(F)(F)F)c1cc(-c2cnn3cc(-c4ccc(F)cc4)cnc23)cs1
